{"source": "ChEMBL document CHEMBL4673229", "about": "“Pancreatic Lipase Inhibitory Cyclohexapeptides from the Marine Sponge-Derived Fungus Aspergillus sp. 151304” (J Nat Prod, 2020)", "key": {"PC-9": {"tested_on": "PC-9", "test": "Cytotoxicity against human PC-9 cells assessed as reduction in cell viability incubated for 72 hrs by CCK8 assay", "type": "cell-based", "conditions": "PC-9, 72 h"}, "HeLa": {"tested_on": "HeLa", "test": "Cytotoxicity against human HeLa cells assessed as reduction in cell viability incubated for 72 hrs by CCK8 assay", "type": "cell-based"}, "MCF7": {"tested_on": "MCF7", "test": "Cytotoxicity against human MCF7 cells assessed as reduction in cell viability incubated for 72 hrs by CCK8 assay", "type": "cell-based", "conditions": "MCF7, 72 h"}, "HepG2": {"tested_on": "HepG2", "test": "Cytotoxicity against human HepG2 cells assessed as reduction in cell viability incubated for 72 hrs by CCK8 assay", "type": "cell-based", "conditions": "HepG2, 72 h"}, "[1]": {"test": "Non-competitive inhibition of porcine pancrease lipase type 2 assessed as decrease in 4-MU formation using 4-MUO as substrate preincubated for 3 mins followed by substrate addition and measured for 40 mins by Lineweaver-Burk plot analysis", "design": "species or system Sus scrofa domesticus, Pancreas"}, "[2]": {"test": "Inhibition of porcine pancrease lipase type 2 assessed as decrease in 4-MU formation using 4-MUO as substrate preincubated for 3 mins followed by substrate addition and measured for 40 mins by fluorescence assay", "design": "species or system Sus scrofa domesticus, Pancreas"}}, "note": "Positions of bridges follow the written chain, without caps; N, C: chain ends. Non-standard residues stand in square brackets, D forms with d. Residues, ends and D or L forms follow the SMILES beside them. *: point of attachment. NMeY = CN[C@@H](Cc1ccc(O)cc1)C(=O)O; Propionyl = CCC(=O)*", "data": [{"compound": "CC(=O)N[C@@H]1C(=O)N[C@@H](C(C)C)C(=O)N2CCC[C@H]2C(=O)N[C@H](C(C)C)C(=O)N[C@@H](Cc2ccc(O)cc2)C(=O)N[C@@H](Cc2ccc(O)cc2)C(=O)O[C@@H]1C", "values": [{"measurement": "IC50", "setting": "PC-9", "value": "> 20", "unit": "µM"}, {"measurement": "IC50", "setting": "HeLa", "value": "> 20", "unit": "µM"}, {"measurement": "IC50", "setting": "MCF7", "value": "> 20", "unit": "µM"}, {"measurement": "IC50", "setting": "HepG2", "value": "> 20", "unit": "µM"}, {"measurement": "Ki", "setting": "[1]", "value": 2, "unit": "µM"}, {"measurement": "IC50", "setting": "[2]", "value": 0.5, "unit": "µM"}]}, {"compound": "CC(=O)N[C@@H]1C(=O)N[C@@H](C(C)C)C(=O)N2CCC[C@H]2C(=O)N[C@@H](C(C)C)C(=O)N(C)[C@@H](Cc2ccc(O)cc2)C(=O)N[C@@H](Cc2ccc(O)cc2)C(=O)O[C@@H]1C", "note": "(Ac-TVPV[NMeY]Y; ester 1-C)", "values": [{"measurement": "IC50", "setting": "PC-9", "value": "> 20", "unit": "µM"}, {"measurement": "IC50", "setting": "HeLa", "value": "> 20", "unit": "µM"}, {"measurement": "IC50", "setting": "MCF7", "value": "> 20", "unit": "µM"}, {"measurement": "IC50", "setting": "HepG2", "value": "> 20", "unit": "µM"}, {"measurement": "IC50", "setting": "[2]", "value": 7.6, "unit": "µM"}]}, {"compound": "CCC(=O)N[C@@H]1C(=O)N[C@@H](C(C)C)C(=O)N2CCC[C@H]2C(=O)N[C@@H](C(C)C)C(=O)N(C)[C@@H](Cc2ccc(O)cc2)C(=O)N[C@@H](Cc2ccc(O)cc2)C(=O)O[C@@H]1C", "note": "(Propionyl-TVPV[NMeY]Y; ester 1-C)", "values": [{"measurement": "IC50", "setting": "PC-9", "value": "> 20", "unit": "µM"}, {"measurement": "IC50", "setting": "HeLa", "value": "> 20", "unit": "µM"}, {"measurement": "IC50", "setting": "MCF7", "value": "> 20", "unit": "µM"}, {"measurement": "IC50", "setting": "HepG2", "value": "> 20", "unit": "µM"}, {"measurement": "IC50", "setting": "[2]", "value": 1.8, "unit": "µM"}]}]}
